Laboratory results taken from US5945454A, “2-(4-substituted)-benzylamino-2-methyl-propanamide derivatives” (Pharmacia & Upjohn, S.P.A., priority 1995, dated 1999).

Test system: maximal electroshock seizures (MES)
Test: antagonism of maximal electroshock seizures (MES) after oral administration
Assay type: in vivo
Settings: limits in parentheses, read-out: MES-ED50 (effective dose in 50% of treated animals)
Description: The activity on the CNS of the compounds of the invention was evaluated on the basis of pharmacological methods, such as, for example, the antagonism of convulsions and lethality induced by intravenous injection of bicuculline in mice (Antiepileptic Drugs, D. M. Woodbury et al. eds., 2nd edition, Raven Press, New York, 1982), or the antagonism of maximal electroshock seizures (MES) (Woodbury, L. A. and Davenport, V. D., Arch. Int. Pharmacodyn. Ther. 92; 97-104, 1952).
The following table summarizes the activity data obtained by testing in the MES test a representative group of compounds of the invention in comparison with the respective 2-desmethyl related compounds known from WO 90/14334.
ED50 means effective dose in 50% of treated animals after per os (po) administration.

CNC(=O)C(C)(C)NCc1ccc(OCc2cccc(F)c2)cc1.CS(=O)(=O)O [FCE 29647A, 2-[4-(3-fluorobenzyloxy)benzylamino]-2-methyl-N-methyl-propanamide, methanesulfonate]
ED50: 4.34 mg/kg

C[C@H](NCc1ccc(SCc2ccccc2)cc1)C(N)=O [FCE 26727A, (S)-2-(4-benzylsulfanyl)benzylamino) propanamide, methanesulfonate]
ED50: 12.7 mg/kg

CNC(=O)[C@H](C)NCc1ccc(OCc2cccc(F)c2)cc1.CS(=O)(=O)O [FCE 28657A, (S)-2-(4-(3-fluorobenzyloxy)benzylamino)-N-methylpropanamide, methanesulfonate]
ED50: 9.35 mg/kg

CC(C)(NCc1ccc(SCc2ccccc2)cc1)C(N)=O [FCE 29482A, 2-[(4-benzylsulfanyl)benzylamino]-2-methyl-propanamide, methanesulfonate]
ED50: 3.12 mg/kg

CC(C)(NCc1ccc(OCc2ccc(F)cc2)cc1)C(N)=O.CS(=O)(=O)O [FCE 29645A, 2-[4-(4-fluorobenzyloxy)benzylamino]-2-methyl-propanamide, methanesulfonate]
ED50: 6.58 mg/kg

CC(C)(NCc1ccc(OCc2ccccc2F)cc1)C(N)=O.CS(=O)(=O)O [FCE 29484A, 2-[4-(2-fluorobenzyloxy)benzylamino]-2-methyl-propanamide, methanesulfonate]
ED50: 3.1 mg/kg

CC(C)(NCc1ccc(OCc2cccc(F)c2)cc1)C(N)=O [FCE 29088A, 2-[4-(3-fluorobenzyloxy)benzylamino]-2-methyl-propanamide, methanesulfonate]
ED50: 4.4 mg/kg

C[C@H](NCc1ccc(OCc2cccc(Cl)c2)cc1)C(N)=O [FCE 26193A, (S)-2-(4-(3-chlorobenzyloxy)benzylamino) propanamide, methanesulfonate]
ED50: 9.41 mg/kg

C[C@H](NCc1ccc(OCc2cccc(F)c2)cc1)C(N)=O [FCE 26743A, (S)-2-(4-(3-fluorobenzyloxy)benzylamino) propanamide, methanesulfonate]
ED50: 8.2 mg/kg

C[C@H](NCc1ccc(OCc2ccc(F)cc2)cc1)C(N)=O [FCE 26998A, (S)-2-(4-(4-fluorobenzyloxy)benzylamino) propanamide, methanesulfonate]
ED50: 16.3 mg/kg

C[C@H](NCc1ccc(OCc2ccccc2F)cc1)C(N)=O [FCE 26742A, (S)-2-(4-(2-fluorobenzyloxy)benzylamino) propanamide, methanesulfonate]
ED50: 7.13 mg/kg

CC(C)(NCc1ccc(OCc2cccc(Cl)c2)cc1)C(N)=O [FCE 29644A, 2-[4-(3-chlorobenzyloxy)benzylamino]-2-methyl-propanamide, methanesulfonate]
ED50: 3.88 mg/kg
